Results reported in US8691859B2 (priority 2005, dated 2014).
Converted amounts (≈) assume the structure as drawn.

Tests used:
[1] = system: B. anthracis GFP sterne vegetative cells; assay: microbe, parasite or virus in culture; type: cell-based; details: for MIC: Bacillus anthracis, read-out: MIC B. anthracis vegetative cells
[2] = system: B. anthracis GFP sterne spores; assay: microbe, parasite or virus in culture; type: cell-based; details: for MIC: Bacillus anthracis, read-out: MIC B. anthracis spores

| Compound | MIC [1] [µg/mL] | MIC [2] [µg/mL] | MIC B. anthracis vegetative cells [1] [µg/mL] | MIC B. anthracis spores [2] [µg/mL] |
| --- | --- | --- | --- | --- |
| Cc1cc(N)c2cc(NC(=O)Nc3ccc4nc(C)cc(N)c4c3)ccc2n1 [NSC 12155, 1,3-bis(4-amino-2-methyl-quinolin-6-yl)urea] | 17.8 (≈ 47.8 µM) | 4.45 (≈ 11.9 µM) | – | – |
| Cc1cc2nc(C=Cc3nc4cc(C)c(C)cc4[nH]3)[nH]c2cc1C [NSC 92833, 2-[2-(5,6-dimethyl-1H-benzoimidazol-2-yl)ethenyl]-5,6-dimethyl-1H-benzoimidazole] | > 12.6 | > 12.6 | – | – |
| C(=Cc1nc2ccccc2[nH]1)c1nc2ccccc2[nH]1 [NSC 103699, 2-[2-(1H-benzoimidazol-2-yl)ethenyl]-1H-benzoimidazole] | > 10.4 | > 10.4 | – | – |
| OCCn1c(C=Cc2nc3ccccc3[nH]2)nc2ccccc21 [NSC 103701, 2-[2-[2-(1H-benzoimidazol-2-yl)ethenyl]benzoimidazol-1-yl]ethanol] | > 12.2 | > 12.2 | – | – |
| CC(O)C(=O)O.N=C(N)c1ccc(-c2cc3ccc(C(=N)N)cc3s2)cc1 [NSC 240890, 2-(4-carbamimidoylphenyl)benzothiophene-6-carboximidamide; 2-hydroxypropanoic acid] | > 19 | > 19 | – | – |
| N=C(N)c1ccc(-c2cc3cc(C(=N)N)ccc3s2)cc1 [NSC 240891, 2-(4-carbamimidoylphenyl)benzothiophene-5-carboximidamide] | > 14.7 | > 14.7 | – | – |
| N=C(N)c1ccc(-c2nc3ccc(C(=N)N)cc3[nH]2)cc1 [NSC 240894, 2-(4-carbamimidoylphenyl)-3H-benzoimidazole-5-carboximidamide] | > 14 | > 14 | – | – |
| N=C(N)c1ccc(-n2cc3cc(C(=N)N)ccc3n2)cc1 [NSC 240895, 2-(4-carbamimidoylphenyl)indazole-5-carboximidamide] | > 14 | > 14 | – | – |
| N=C(N)c1ccc(-n2nc3ccc(C(=N)N)cc3n2)cc1 [NSC 240896, 2-(4-carbamimidoylphenyl)benzotriazole-5-carboximidamide] | > 14.1 | > 14.1 | – | – |
| N=C(N)c1ccc(-c2[nH]c3cc(C(=N)N)ccc3c2-c2ccccc2)cc1 [NSC 240897, 2-(4-carbamimidoylphenyl)-3-phenyl-1H-indole-6-carboximidamide] | 17 (≈ 48.2 µM) | 8.52 (≈ 24.1 µM) | – | – |
| N=C(N)c1ccc(-c2cc(-c3ccc(C(=N)N)cc3)on2)cc1 [NSC 240900, 4-[3-(4-carbamimidoylphenyl)oxazol-5-yl]benzenecarboximidamide] | > 15.1 | > 15.1 | – | – |
| N=C(N)c1ccc2oc(/C=C/c3cc4cc(C(=N)N)ccc4s3)cc2c1 [NSC 266472, 2-[(E)-2-(5-carbamimidoylbenzothiophen-2-yl)ethenyl]benzofuran-5-carboximidamide] | 17.3 (≈ 48.1 µM) | 8.66 (≈ 24 µM) | – | – |
| N=C(N)c1ccc2nc(/C=C/c3nc4ccc(C(=N)N)cc4[nH]3)[nH]c2c1 [NSC 266475, 2-[(E)-2-(5-carbamimidoyl-3H-benzoimidazol-2-yl)ethenyl]-3H-benzoimidazole-5-carboximidamide] | > 16.7 | > 16.7 | – | – |
| N=C(N)c1ccc2oc(CCc3cc4cc(C(=N)N)ccc4o3)cc2c1 [NSC 266477, 2-[2-(5-carbamimidoylbenzofuran-2-yl)ethyl]benzofuran-5-carboximidamide] | > 16.8 | > 16.8 | – | – |
| Nc1ccc(C2=Cc3ccc(N)cc3S2(=O)=O)cc1 [NSC 266482, 2-(4-aminophenyl)-1,1-dioxo-benzothiophen-6-amine] | > 10.9 | > 10.9 | – | – |
| c1cc(-c2cc3ccc(C4=NCCN4)cc3[nH]2)ccc1C1=NCCN1 [NSC 278995, 6-(4,5-dihydro-1H-imidazol-2-yl)-2-[4-(4,5-dihydro-1H-imidazol-2-yl)phenyl]-1H-indole] | > 16.1 | > 16.1 | – | – |
| c1cc(-c2cc3ccc(C4=NCCN4)cc3s2)ccc1C1=NCCN1 [NSC 278996, 2-[2-[4-(4,5-dihydro-1H-imidazol-2-yl)phenyl]benzothiophen-6-yl]-4,5-dihydro-1H-imidazole] | > 16.8 | > 16.8 | – | – |
| C(=C\c1cc2cc(C3=NCCN3)ccc2o1)/c1cc2cc(C3=NCCN3)ccc2o1 [NSC 278999, 2-[2-[(E)-2-[5-(4,5-dihydro-1H-imidazol-2-yl)benzofuran-2-yl]ethenyl]benzofuran-5-yl]-4,5-dihydro-1H-imidazole] | > 18.8 | > 18.8 | – | – |
| O=C(Nc1ccc(C2=NCCN2)cc1)c1cc2cc(C3=NCCN3)ccc2o1 [NSC 290111, 5-(4,5-dihydro-1H-imidazol-2-yl)-N-[4-(4,5-dihydro-1H-imidazol-2-yl)phenyl]benzofuran-2-carboxamide] | > 17.8 | 17.8 (≈ 47.8 µM) | – | – |

| Compound | MIC [1] [µg/mL] | MIC [2] [µg/mL] | MIC B. anthracis vegetative cells [1] [µg/mL] | MIC B. anthracis spores [2] [µg/mL] |
| --- | --- | --- | --- | --- |
| N=C(N)c1ccc2cc(/C=C/c3cc4ccc(C(=N)N)cc4o3)oc2c1 [NSC 294199, 2-[(E)-2-(6-carbamimidoylbenzofuran-2-yl)ethenyl]benzofuran-6-carboximidamide] | 16.7 (≈ 48.4 µM) | 8.34 (≈ 24.2 µM) | – | – |
| N=C(N)c1ccc2oc(/C=C/c3cc4ccc(C(=N)N)cc4o3)cc2c1 [NSC 294202, 2-[(E)-2-(5-carbamimidoylbenzofuran-2-yl)ethenyl]benzofuran-6-carboximidamide] | > 16.7 | > 16.7 | – | – |
| N=C(N)c1ccc(NC(=O)c2cc3ccc(C(=N)N)cc3o2)cc1 [NSC 294207, 6-carbamimidoyl-N-(4-carbamimidoylphenyl)benzofuran-2-carboxamide] | > 15.8 | > 15.8 | – | – |
| O=C(Nc1ccc(C2=NCCN2)cc1)c1cc2ccc(C3=NCCN3)cc2o1 [NSC 294208, 6-(4,5-dihydro-1H-imidazol-2-yl)-N-[4-(4,5-dihydro-1H-imidazol-2-yl)phenyl]benzofuran-2-carboxamide] | > 17.8 | > 17.8 | – | – |
| C(=C\c1cc2ccc(C3=NCCN3)cc2o1)/c1cc2ccc(C3=NCCN3)cc2o1 [NSC 294494, 2-[2-[(E)-2-[6-(4,5-dihydro-1H-imidazol-2-yl)benzofuran-2-yl]ethenyl]benzofuran-6-yl]-4,5-dihydro-1H-imidazole] | 18.8 (≈ 47.3 µM) | 18.8 (≈ 47.3 µM) | – | – |
| N=C(N)c1ccc(-c2[nH]c3cc(C(=N)N)ccc3c2N)cc1 [NSC 300509, 3-amino-2-(4-carbamimidoylphenyl)-1H-indole-6-carboximidamide] | > 14.6 | > 14.6 | – | – |
| N=C(N)c1ccc(-c2ccc(-c3ccc(C(=N)N)cc3)s2)cc1 [NSC 300510, 4-[5-(4-carbamimidoylphenyl)thiophen-2-yl]benzenecarboximidamide] | > 15.7 | 15.7 (≈ 49.1 µM) | – | – |
| N=C(N)c1ccc(/C=C/c2cc3cc(C(=N)N)ccc3o2)cc1 [NSC 300512, 2-[(E)-2-(4-carbamimidoylphenyl)ethenyl]benzofuran-5-carboximidamide] | > 15.1 | > 15.1 | – | – |
| c1cc(-c2cc3cc(C4=NCCN4)ccc3s2)ccc1C1=NCCN1 [NSC 308569, 2-[2-[4-(4,5-dihydro-1H-imidazol-2-yl)phenyl]benzothiophen-5-yl]-4,5-dihydro-1H-imidazole] | > 16.8 | > 16.8 | – | – |
| C(=C\c1cc2cc(C3=NCCN3)ccc2o1)/c1ccc(C2=NCCN2)cc1 [NSC 308570, 2-[2-[(E)-2-[4-(4,5-dihydro-1H-imidazol-2-yl)phenyl]ethenyl]benzofuran-5-yl]-4,5-dihydro-1H-imidazole] | 17.2 (≈ 48.1 µM) | 17.2 (≈ 48.1 µM) | – | – |
| C(/C=C/c1cc2cc(C3=NCCN3)ccc2o1)=C\c1ccc(C2=NCCN2)cc1 [NSC 308573, 2-[2-[(1E,3E)-4-[4-(4,5-dihydro-1H-imidazol-2-yl)phenyl]buta-1,3-dienyl]benzofuran-5-yl]-4,5-dihydro-1H-imidazole] | 18.2 (≈ 47.6 µM) | 18.2 (≈ 47.6 µM) | – | – |
| C(=C\c1cc2cc(C3=NCCN3)ccc2s1)/c1ccc(C2=NCCN2)cc1 [NSC 317883, 2-[2-[(E)-2-[4-(4,5-dihydro-1H-imidazol-2-yl)phenyl]ethenyl]benzothiophen-5-yl]-4,5-dihydro-1H-imidazole] | 17.8 (≈ 47.8 µM) | 17.8 (≈ 47.8 µM) | – | – |
| c1cc2cc(-c3cc4ccc(C5=NCCN5)cc4[nH]3)[nH]c2cc1C1=NCCN1 [NSC 330688, 6-(4,5-dihydro-1H-imidazol-2-yl)-2-[6-(4,5-dihydro-1H-imidazol-2-yl)-1H-indol-2-yl]-1H-indole] | 1.1 (≈ 2.99 µM) | 0.551 (≈ 1.5 µM) | – | – |
| N=C(N)c1ccc2c(c1)=NC(=C(N)N)C=2 [NSC 330689, 2-(diaminomethylidene)indole-6-carboximidamide] | > 11 | > 11 | – | – |
| C(=C\c1cc2ccc(C3=NCCN3)cc2[nH]1)/c1ccc(Oc2ccc(C3=NCCN3)cc2)cc1 [NSC 330690, 6-(4,5-dihydro-1H-imidazol-2-yl)-2-[(E)-2-[4-[4-(4,5-dihydro-1H-imidazol-2-yl)phenoxy]phenyl]ethenyl]-1H-indole] | 2.6 (≈ 5.81 µM) | 2.6 (≈ 5.81 µM) | – | – |
| NC(N)=Nc1ccc(-c2cc3cc(N=C(N)N)ccc3s2)cc1 [NSC 341910, 2-[2-[4-(diaminomethylideneamino)phenyl]benzothiophen-5-yl]guanidine] | > 15.9 | 15.9 (≈ 48.9 µM) | – | – |
| c1cc(-c2[nH]c3cc(C4=NCCN4)ccc3c2-c2cc3ccc(C4=NCCN4)cc3[nH]2)ccc1C1=NCCN1 [NSC 352341, 6-(4,5-dihydro-1H-imidazol-2-yl)-3-[6-(4,5-dihydro-1H-imidazol-2-yl)-1H-indol-2-yl]-2-[4-(4,5-dihydro-1H-imidazol-2-yl)phenyl]-1H-indole] | – | – | 13.64 (≈ 26.6 µM) | 6.82 (≈ 13.3 µM) |
| c1cc(-c2nc3ccc(-c4nc5ccc(C6=NCCN6)cc5[nH]4)cc3[nH]2)ccc1C1=NCCN1 [NSC 369721, 5-(4,5-dihydro-1H-imidazol-2-yl)-2-[2-[4-(4,5-dihydro-1H-imidazol-2-yl)phenyl]-3H-benzoimidazol-5-yl]-3H-benzoimidazole] | 22.3 (≈ 49.9 µM) | 1.39 (≈ 3.11 µM) | – | – |
| Glycine, N-acetyl-, compound with 2,2′-(1,{2-ethenediyl)bis[5-benzofurancarboximidamide]} (2:1) [NSC 341082] | – | – | >23.16 | >23.16 |
